{"source": "patent US7560262B2", "about": "“Polynucleotide sequences encoding alkaline α-galactosidases and methods of using same” (The State of Israel - Ministry of Agriculture & Rural …, priority 2002, dated 2009)", "molecules": {"B1": {"name": "recombinant Aga-I (alkaline-α-galactosidase I) (Cucumis melo) (protein)", "chain": "MTVGAGITISDANLTVLGNRVLSDVHNNITLTAAPGGGVMNGAFIGVQSDQIGSRRVFPIGKLIGLRFLCAFRFKLWWMTQRMGCSGQEVPFETQFLVVETRDGSNIAGNGEEGDAVYTVFLPILEGDFRAVLQGNDNNEIEICLESGDPSVDGFEGSHLVFVGAGSDPFETITYAVKSVEKHLQTFAHRERKKMPDILNWFGWCTWDAFYTDVTSDGVKKGLESFENGGIPPKFVIIDDGWQSVAKDATSADCKADNTANFANRLTHIKENYKFQKDGKEGERIENPALGLQHIVSYMKEKHATKYVYVWHAITGYWGGVSAGVKEMEQYESKIAYPVASPGVESNEPCDALNSITKTGLGLVNPEKVFNFYNEQHSYLASAGVDGVKVDVQNILETLGAGHGGRVKLARKYHQALEASISRNFQDNGIISCMSHNTDGLYSSKRNAVIRASDDFWPRDPASHTIHIASVAYNSLFLGEFMQPDWDMFHSLHPMAEYHGAARAVGGCAIYVSDKPGQHDFNLLKKLVLPDGSILRAKLPGRPTKDCLFTDPARDGKSLLKIWNLNDLSGVVGVFNCQGAGWCKVGKKNLIHDENPDTITGVIRAKDVSYLWKIAGESWTGDAVIFSHLAGEVVYLPQDASMPITLKPREFDVFTVVPVKELVNDIKFAPIGLIKMFNSGGAVKEMNHQPGSSNVSLKVRGSGPFGAYSSSKPKRVAVDSEEVEFMYDEGGLITIDLKVPEKELYLWDIRIEL"}, "B2": {"name": "Aga-I: Cucumis melo alkaline-α-galactosidase I, SEQ ID NO: 6, encoded by SEQ ID NO: 5 (protein)", "chain": "B1 chain", "modifications": "Cucumis melo"}, "B3": {"name": "Aga-II: Cucumis melo alkaline α-galactosidase II, SEQ ID NO: 10, encoded by SEQ ID NO: 9 (protein)", "chain": "MTVTPKISVNDGNLVVHGKTILTGVPDNIVLTPGSGLGLVAGAFIGATASNSKSLHVFPVGVLEGTRFLCCFRFKLWWMTQRMGTSGRDIPFETQFLLMESKGNDGEDPDNSSTIYTVFLPLLEGQFRAALQGNEKNEMEICLESGDNTVETNQGLSLVYMHAGTNPFEVITQAVKAVEKHTQTFLHREKKKLPSFLDWFGWCTWDAFYTDVTAEGVVEGLKSLSEGGAPPKFLIIDDGWQQIEAKPKDADCVVQEGAQFASRLSGIKENHKFQKNGNNYDQVPGLKVVVDDAKKQHKVKFVYAWHALAGYWGGVKPASPGMEHYDSALAYPVQSPGMLGNQPDIVVDSLAVHGIGLVHPKKVFNFYNELHSYLASCGIDGVKVDVQNIIETLGAGHGGRVTLTRSYHQALEASIARNFSDNGCIACMCHNTDSLYSAKQTAVVRASDDYYPRDPASHTIHISSVAYNSLFLGEFMQPDWDMFHSLHPTAEYHGAARAIGGCAIYVSDKPGNHNFDLLKKLVLPDGSVLRAQLPGRPTRDSLFNDPARDGTSLLKIWNMNKCSGVVGVFNCQGAGWCRITKKTRIHDESPGTLTTSVRAADVDAISQVAGADWKGDTIVYAYRSGDLIRLPKGASVPVTLKVLEYDLLHISPLKDIASNISFAPIGLLDMFNTGGAVEQVNVQVVEPIPEFDGEVASELTCSLPNDRPPTATITMKARGCRRFGLYSSQRPLKCSVDKVDVDFVYDEVTGLVTFEIPIPTEEMYRWNIEIQV", "modifications": "Cucumis melo"}}, "key": {"[1]": {"molecular_target": "recombinant Aga-I (alkaline-α-galactosidase I) (Cucumis melo, UniProt A0ABM3L1M0)", "test": "α-galactosidase assay of E. coli extracts: substrate specificity of recombinant Aga-I", "assay_type": "biochemical", "conditions": "for Activity (calculated specific activity): recombinant Aga-I, substrate 10 mM, pH 8; for activity of recombinant Aga-I with nitrophenyl substrates: recombinant Aga-I extract", "method": "α-galactosidase assay of E. coli extracts—α-galactosidase activity was assayed as described by Smart and Pharr [Smart and Pharr (1980) Plant Physiol. 66:731-734] and as performed by Gao and Schaffer (1999) Plant Physiol. 119:979-987]. Reaction was initiated by adding 50 μl enzyme aliquot to 200 μl McIlvaine buffer (made by mixing stock solutions of 0.1M citric acid and 0.2M sodium hydrogen phosphate to achieve pH of 5.0 and 7.0 for the assay of acid and alkaline activity, respectively) and 50 μl substrate (final concentration, 5 mM for pNPG and 10 mM for the natural substrates). Optimum pH for galactosidase activity was determined using the following reaction buffers: Mcllvaine buffer, over a pH range of 4 to 7, 100 mM Hepes buffer over a pH range of 7 to 8, or 50 mM Tris buffer over a pH range of 8 to 8.7. […] In addition, substrate concentration dependence of the reaction was measured by varying the substrate concentrations from 0-10 mM. Km and Vmax values were calculated using Lineweaver-Burk plots."}, "[2]": {"test_system": "alkaline α-galactosidase from Cucurbita pepo leaves", "conditions": "cited from earlier work; for affinity as substrate: Gaudreault and Webb; for inhibition of the enzyme's activity by the reaction product: Gaudreault and Webb 1983"}, "[3]": {"substrate": "OC[C@H]1O[C@H](OC[C@H]2O[C@H](OC[C@H]3O[C@H](O[C@]4(CO)O[C@H](CO)[C@@H](O)[C@@H]4O)[C@H](O)[C@@H](O)[C@@H]3O)[C@H](O)[C@@H](O)[C@H]2O)[C@H](O)[C@@H](O)[C@H]1O", "test": "purified protein, by the assay type", "conditions": "other: recombinant Aga-I, pH 8, Lineweaver-Burk plots"}, "[4]": {"substrate": "OC[C@H]1O[C@H](OC[C@H]2O[C@H](O[C@]3(CO)O[C@H](CO)[C@@H](O)[C@@H]3O)[C@H](O)[C@@H](O)[C@@H]2O)[C@H](O)[C@@H](O)[C@H]1O", "test": "purified protein, by the assay type", "conditions": "other: recombinant Aga-I, pH 8, Lineweaver-Burk plots"}, "[5]": {"test": "pH and temperature dependence of α-galactosidase activity of recombinant Aga-I and Aga-II", "assay_type": "biochemical", "conditions": "for pH of maximal α-galactosidase activity: extracts of transformed E. coli, pNPG, FIG. 4", "method": "α-galactosidase assay of E. coli extracts—α-galactosidase activity was assayed as described by Smart and Pharr [Smart and Pharr (1980) Plant Physiol. 66:731-734] and as performed by Gao and Schaffer (1999) Plant Physiol. 119:979-987]. Reaction was initiated by adding 50 μl enzyme aliquot to 200 μl McIlvaine buffer (made by mixing stock solutions of 0.1M citric acid and 0.2M sodium hydrogen phosphate to achieve pH of 5.0 and 7.0 for the assay of acid and alkaline activity, respectively) and 50 μl substrate (final concentration, 5 mM for pNPG and 10 mM for the natural substrates). […] Substrates used were the synthetic substrates based on p-nitrophenol (pNP-sugars), including the pNPa-gal (Sigma) and the natural substrates stachyose, raffinose and melibiose. In addition, substrate concentration dependence of the reaction was measured by varying the substrate concentrations from 0-10 mM. Km and Vmax values were calculated using Lineweaver-Burk plots."}}, "note": "Where two headings read alike, the source gives them in different places.", "data": [{"molecule": "6-O-α-D-galactopyranosyl-D-glucose [Melibiose]", "values": [{"measurement": "Activity (calculated specific activity)", "setting": "[1]", "value": 124, "unit": "nmol/mg protein/minute"}, {"measurement": "affinity as substrate", "setting": "[2]", "value": "low affinity"}]}, {"molecule": "OC[C@H]1O[C@H](OC[C@H]2O[C@H](O[C@]3(CO)O[C@H](CO)[C@@H](O)[C@@H]3O)[C@H](O)[C@@H](O)[C@@H]2O)[C@H](O)[C@@H](O)[C@H]1O", "note": "[Raffinose, O-α-D-galactopyranosyl-(1-6)-O-α-D-glucopyranosyl-(1-2)-beta-D-fructofuranoside]", "values": [{"measurement": "Activity (calculated specific activity)", "setting": "[1]", "value": 482, "unit": "nmol/mg protein/minute"}, {"measurement": "affinity as substrate", "setting": "[2]", "value": "low affinity"}]}, {"molecule": "OC[C@H]1O[C@H](OC[C@H]2O[C@H](OC[C@H]3O[C@H](O[C@]4(CO)O[C@H](CO)[C@@H](O)[C@@H]4O)[C@H](O)[C@@H](O)[C@@H]3O)[C@H](O)[C@@H](O)[C@H]2O)[C@H](O)[C@@H](O)[C@H]1O", "note": "[Stachyose, O-α-D-galactopyranosyl-(1-6)-O-α-D-galactopyranosyl-(1-6)-O-α-D-glucopyranosyl-(1-2)-beta-D-fructofuranoside]", "values": [{"measurement": "Activity (calculated specific activity)", "setting": "[1]", "value": 645, "unit": "nmol/mg protein/minute"}]}, {"molecule": "C[C@@H]1O[C@@H](Oc2ccc([N+](=O)[O-])cc2)[C@@H](O)[C@H](O)[C@@H]1O", "note": "[pNP-Fuc]", "values": [{"measurement": "activity of recombinant Aga-I with nitrophenyl substrates", "setting": "[1]", "value": "no activity"}]}, {"molecule": "CC(=O)N[C@H]1[C@H](Oc2ccc([N+](=O)[O-])cc2)O[C@H](CO)[C@@H](O)[C@@H]1O", "note": "[pNP-NacG]", "values": [{"measurement": "activity of recombinant Aga-I with nitrophenyl substrates", "setting": "[1]", "value": "no activity"}]}, {"molecule": "O=[N+]([O-])c1ccc(O[C@H]2O[C@H](CO)[C@@H](O)[C@H](O)[C@H]2O)cc1", "note": "[pNP-αGlu]", "values": [{"measurement": "activity of recombinant Aga-I with nitrophenyl substrates", "setting": "[1]", "value": "no activity"}]}, {"molecule": "O=[N+]([O-])c1ccc(O[C@H]2O[C@H](CO)[C@@H](O)[C@H](O)[C@@H]2O)cc1", "note": "[pNP-αMan]", "values": [{"measurement": "activity of recombinant Aga-I with nitrophenyl substrates", "setting": "[1]", "value": "no activity"}]}, {"molecule": "O=[N+]([O-])c1ccc(O[C@@H]2O[C@H](CO)[C@H](O)[C@H](O)[C@H]2O)cc1", "note": "[pNP-βGal]", "values": [{"measurement": "activity of recombinant Aga-I with nitrophenyl substrates", "setting": "[1]", "value": "some activity"}]}, {"molecule": "O=[N+]([O-])c1ccc(O[C@@H]2O[C@H](CO)[C@@H](O)[C@H](O)[C@H]2O)cc1", "note": "[pNP-βGlu]", "values": [{"measurement": "activity of recombinant Aga-I with nitrophenyl substrates", "setting": "[1]", "value": "no activity"}]}, {"molecule": "O=[N+]([O-])c1ccc(O[C@@H]2O[C@H](CO)[C@@H](O)[C@H](O)[C@@H]2O)cc1", "note": "[pNP-βMan]", "values": [{"measurement": "activity of recombinant Aga-I with nitrophenyl substrates", "setting": "[1]", "value": "no activity"}]}, {"molecule": "OC[C@H]1O[C@H](O)[C@H](O)[C@@H](O)[C@H]1O", "note": "[α-D-galactose]", "values": [{"measurement": "inhibition of the enzyme's activity by the reaction product", "setting": "[2]", "value": "strong inhibitor"}, {"measurement": "inhibition of the enzyme's activity by the reaction product", "setting": "[2]; listed as α-galactose", "value": "strongly inhibited"}]}, {"molecule": "B1", "values": [{"measurement": "Km", "setting": "[3]", "value": 1900, "unit": "µM"}, {"measurement": "Km", "setting": "[4]", "value": 1800, "unit": "µM"}]}, {"molecule": "B2", "values": [{"measurement": "pH of maximal α-galactosidase activity", "setting": "[5]", "value": 8, "unit": "pH"}, {"measurement": "galactosidase activity at pH 9", "setting": "[5]; pH 9, data not shown", "value": "activity was still observed"}, {"measurement": "pH range of highest galactosidase activity", "setting": "[5]; recombinant Aga-I, data not shown", "value": "7.5-8 pH"}]}, {"molecule": "B3", "values": [{"measurement": "pH of maximal α-galactosidase activity", "setting": "[5]", "value": 8, "unit": "pH"}]}]}
